Assay results published in US8829011B2 (Janssen Pharmaceutica NV, priority 2008, dated 2014).

Assays:
[1] = molecular target: T1, human recombinant 5-HT6 receptor (Homo sapiens, UniProt P50406); assay: Affinity for 5-HT6 receptor binding sites (competitive radioligand binding, [3H]LSD); details: membranes of HEK-293 with h5-HT6, * = tested as hydrochloride salt
T1 construct: expressed in transfected cells; host or cells: HEK-293
Experimental: (§1) Stock drug solutions (10 mM) were prepared in DMSO (the final assay concentration of DMSO not exceeding 0.4%). Drug dilutions were prepared in assay buffer.
(§2) Sigmoidal inhibition curves were generated and fitted by nonlinear regression analysis (GraphPad Prism).
3. Affinity for 5-HT6 Receptor Binding Sites
Receptor binding was performed using the human recombinant 5-HT6 (GB: BC0794995) receptor. The affinity of the compounds for the human 5-HT6 receptor was evaluated by competitive radioligand binding assays using [^3H]LSD. The assays were performed on membranes prepared from HEK-293 stably transfected with h5-HT6. Non-specific binding was estimated in the presence of 1 μM clozapine.

[2] = molecular target: T2, human recombinant 5-HT2C receptor (Homo sapiens, UniProt P28335); assay: Affinity for 5-HT2C receptor binding sites (competitive radioligand binding, [3H]mesulergine); details: membranes of CHO with h5-HT2C, * = tested as hydrochloride salt
T2 construct: expressed in transfected cells; host or cells: CHO
T2 sequence (P28335 33-458): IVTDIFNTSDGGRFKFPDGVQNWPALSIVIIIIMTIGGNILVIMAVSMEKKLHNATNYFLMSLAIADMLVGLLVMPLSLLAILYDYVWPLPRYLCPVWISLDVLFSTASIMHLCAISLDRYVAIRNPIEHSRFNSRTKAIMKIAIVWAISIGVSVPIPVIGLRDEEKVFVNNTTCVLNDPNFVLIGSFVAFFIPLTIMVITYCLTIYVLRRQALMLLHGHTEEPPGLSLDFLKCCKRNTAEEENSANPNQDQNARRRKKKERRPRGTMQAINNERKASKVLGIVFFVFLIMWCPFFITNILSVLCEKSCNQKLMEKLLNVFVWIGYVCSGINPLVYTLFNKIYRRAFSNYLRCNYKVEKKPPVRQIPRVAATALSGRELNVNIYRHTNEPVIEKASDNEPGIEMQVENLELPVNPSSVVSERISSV
Experimental: as §1, §2
(§3) 2. Affinity for 5HT2 Receptor Binding Sites
(§4) Receptor binding was performed using the human recombinant 5-HT2A (GB: X57830), 5-HT2B (GB: Z36748) and 5-HT2C (GB: M81778) receptors. The affinity of the compounds for the 3 different human 5-HT2 receptor subtypes was evaluated by competitive radioligand binding assays using [^3H]ketanserin (h5-HT2A) or [^3H]mesulergine (h5-HT2B and h5-HT2C). The assays were performed on membranes prepared from NIH3T3 stably transfected with h5-HT2A or CHO stably transfected with h5-HT2B and h5-HT2C.

[3] = molecular target: T3, human recombinant 5-HT2A receptor (Homo sapiens, UniProt P28223); assay: Affinity for 5-HT2A receptor binding sites (competitive radioligand binding, [3H]ketanserin); details: membranes of NIH3T3 with h5-HT2A, * = tested as hydrochloride salt
T3 construct: expressed in transfected cells; host or cells: NIH3T3
Experimental: as §1, §2, §3, §4

[4] = molecular target: T4, human recombinant 5-HT2B receptor (Homo sapiens, UniProt P41595); assay: Affinity for 5-HT2B receptor binding sites (competitive radioligand binding, [3H]mesulergine); details: membranes of CHO with h5-HT2B, * = tested as hydrochloride salt
T4 construct: expressed in transfected cells; host or cells: CHO
Experimental: as §1, §2, §3, §4

T3 sequence (P28223 whole entry): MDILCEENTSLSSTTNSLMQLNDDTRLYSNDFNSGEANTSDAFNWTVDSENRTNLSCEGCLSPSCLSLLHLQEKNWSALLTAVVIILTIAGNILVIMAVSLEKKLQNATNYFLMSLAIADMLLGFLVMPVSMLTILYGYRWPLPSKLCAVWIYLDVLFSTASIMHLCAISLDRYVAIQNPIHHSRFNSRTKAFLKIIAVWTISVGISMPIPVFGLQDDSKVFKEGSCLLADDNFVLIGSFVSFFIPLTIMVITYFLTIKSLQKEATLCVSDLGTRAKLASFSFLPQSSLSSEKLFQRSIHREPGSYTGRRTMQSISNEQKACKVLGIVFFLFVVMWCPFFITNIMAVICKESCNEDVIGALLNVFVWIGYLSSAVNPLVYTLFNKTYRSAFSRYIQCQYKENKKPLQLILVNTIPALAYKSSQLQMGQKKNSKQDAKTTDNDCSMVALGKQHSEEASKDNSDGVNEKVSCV
T4 sequence (P41595 whole entry): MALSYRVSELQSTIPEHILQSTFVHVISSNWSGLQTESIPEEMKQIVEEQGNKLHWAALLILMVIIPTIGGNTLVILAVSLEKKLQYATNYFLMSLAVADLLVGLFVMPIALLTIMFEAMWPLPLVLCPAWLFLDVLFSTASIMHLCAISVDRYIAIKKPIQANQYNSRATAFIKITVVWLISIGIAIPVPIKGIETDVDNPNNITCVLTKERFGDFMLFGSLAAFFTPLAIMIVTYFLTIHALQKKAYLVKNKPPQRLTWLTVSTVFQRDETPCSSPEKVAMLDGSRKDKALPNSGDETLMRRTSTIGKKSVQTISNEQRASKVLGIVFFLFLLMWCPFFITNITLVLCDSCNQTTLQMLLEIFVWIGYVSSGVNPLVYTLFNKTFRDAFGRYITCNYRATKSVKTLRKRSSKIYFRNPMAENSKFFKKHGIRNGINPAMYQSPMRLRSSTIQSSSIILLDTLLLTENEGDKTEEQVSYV
T1 sequence (P50406 whole entry): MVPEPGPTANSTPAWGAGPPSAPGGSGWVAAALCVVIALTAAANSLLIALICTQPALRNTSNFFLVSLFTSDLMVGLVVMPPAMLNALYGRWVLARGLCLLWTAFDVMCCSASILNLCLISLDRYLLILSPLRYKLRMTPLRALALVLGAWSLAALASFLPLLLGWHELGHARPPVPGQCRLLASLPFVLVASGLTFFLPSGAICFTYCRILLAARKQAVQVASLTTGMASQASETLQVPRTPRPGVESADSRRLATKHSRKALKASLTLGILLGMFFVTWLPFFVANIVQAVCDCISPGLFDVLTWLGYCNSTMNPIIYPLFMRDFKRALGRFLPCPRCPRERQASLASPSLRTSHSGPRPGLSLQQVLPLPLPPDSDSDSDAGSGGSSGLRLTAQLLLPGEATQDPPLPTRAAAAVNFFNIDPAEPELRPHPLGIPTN

| Compound | Ki [1] [nM] | Ki [2] [nM] | Ki [4] [nM] | Ki [3] [nM] |
| --- | --- | --- | --- | --- |
| COc1ccc(-c2nc(N3[C@H](C)CCC[C@@H]3C)nc3c2CCNCC3)cc1 [Example 82, 2-[(2R,6S)-2,6-dimethyl-1-piperidinyl]-6,7,8,9-tetrahydro-4-(4-methoxyphenyl)-5H-pyrimido[4,5-d]azepine] | 35 | 17 | 3 | 48 |
| C[C@H]1COCCN1c1nc2c(c(-c3cc4ccccc4o3)n1)CCNCC2 [Example 98, 4-(2-benzofuranyl)-6,7,8,9-tetrahydro-2-[(3S)-3-methyl-4-morpholinyl]-5H-pyrimido[4,5-d]azepine] | 13 | 140 | 25 | 99 |
| C[C@@H]1CCC[C@H](C)N1c1nc2c(c(-c3ccc(Cl)cc3)n1)CCNCC2 [Example 70, 4-(4-chlorophenyl)-2-[(2R,6S)-2,6-dimethyl-1-piperidinyl]-6,7,8,9-tetrahydro-5H-pyrimido[4,5-d]azepine] | 19 | 12 | 2 | 54 |
| Cc1ccc(-c2nc(N3CCS(=O)(=O)CC3)nc3c2CCNCC3)cc1Cl [Example 92, 4-(3-Chloro-4-methyl-phenyl)-2-(1,1-dioxo-1λ^6-thiomorpholin-4-yl)-6,7,8,9-tetrahydro-5H-pyrimido[4,5-d]azepine] | 85 | 2040 | 950 | 1140 |
| C[C@@H]1CCC[C@H](C)N1c1nc2c(c(-c3ccc(Cl)c(F)c3)n1)CCNCC2 [Example 84, 4-(4-chloro-3-fluorophenyl)-2-[(2R,6S)-2,6-dimethyl-1-piperidinyl]-6,7,8,9-tetrahydro-5H-pyrimido[4,5-d]azepine] | 52 | 18 | 2 | 130 |
| CC(C)c1ccc(-c2nc(N3[C@H](C)CCC[C@@H]3C)nc3c2CCNCC3)cc1 [Example 91, 2-[(2R,6S)-2,6-dimethyl-1-piperidinyl]-6,7,8,9-tetrahydro-4-[4-(1-methylethyl)phenyl]-5H-pyrimido[4,5-d]azepine] | 41 | 45 | 6 | 160 |
| Cc1ccc(-c2nc(N3CCCCC3)nc3c2CCNCC3)cc1 [Example 78, 6,7,8,9-tetrahydro-4-(4-methylphenyl)-2-(1-piperidinyl)-5H-pyrimido[4,5-d]azepine] | 14 | 1 |  | 2 |
| Cc1ccc(-c2nc(N3CCS(=O)(=O)CC3)nc3c2CCNCC3)cc1 [Example 64, 2-(1,1-Dioxo-1λ^6-thiomorpholin-4-yl)-4-p-tolyl-6,7,8,9-tetrahydro-5H-pyrimido[4,5-d]azepine] | 29 | 1260 | 620 | 520 |
| C[C@@H]1CCC[C@H](C)N1c1nc2c(c(-c3ccc(Cl)c(Cl)c3)n1)CCNCC2 [Example 73, 4-(3,4-dichlorophenyl)-2-[(2R,6S)-2,6-dimethyl-1-piperidinyl]-6,7,8,9-tetrahydro-5H-pyrimido[4,5-d]azepine] | 62 | 38 | 7 | 170 |
| C[C@@H]1CCC[C@H](C)N1c1nc2c(c(-c3ccc(OC(F)(F)F)cc3)n1)CCNCC2 [Example 90, 2-[(2R,6S)-2,6-dimethyl-1-piperidinyl]-6,7,8,9-tetrahydro-4-[4-(trifluoromethoxy)phenyl]-5H-pyrimido[4,5-d]azepine] | 88 |  |  |  |
| CC1CCCN1c1nc2c(c(-c3ccc(Cl)cc3)n1)CNCCC2 (centres unmarked) [Example 53, 4-(4-Chloro-phenyl)-2-(2-methyl-pyrrolidin-1-yl)-6,7,8,9-tetrahydro-5H-1,3,6-triaza-benzocycloheptene] |  | > 10000 | 1200 | 2000 |
| C[C@@H]1CCC[C@H](C)N1c1nc2c(c(-c3ccc(F)c(F)c3)n1)CCNCC2 [Example 83, 4-(3,4-difluorophenyl)-2-[(2R,6S)-2,6-dimethyl-1-piperidinyl]-6,7,8,9-tetrahydro-5H-pyrimido[4,5-d]azepine] | 84 | 39 | 12 | 131 |
| FC1CCN(c2nc3c(c(-c4ccc(Cl)cc4)n2)CCNCC3)CC1 [Example 68, 4-(4-chlorophenyl)-2-(4-fluoro-1-piperidinyl)-6,7,8,9-tetrahydro-5H-pyrimido[4,5-d]azepine] | 29 | 5 | 6 | 19 |
| Clc1ccc(-c2nc(NCc3ccccc3)nc3c2CNCCC3)cc1 [Example 55, Benzyl-[4-(4-chloro-phenyl)-6,7,8,9-tetrahydro-5H-1,3,6-triaza-benzocyclohepten-2-yl]-amine] |  | 1100 | > 10000 | 50 |
| FC1(F)CCN(c2nc3c(c(-c4cnc5ccccc5c4)n2)CCNCC3)CC1 [Example 103, 2-(4,4-difluoro-1-piperidinyl)-6,7,8,9-tetrahydro-4-(3-quinolinyl)-5H-pyrimido[4,5-d]azepine] | 42 |  |  |  |
| FC1CCN(c2nc3c(c(-c4ccc(Cl)c(Cl)c4)n2)CCNCC3)CC1 [Example 67, 4-(3,4-dichlorophenyl)-2-(4-fluoro-1-piperidinyl)-6,7,8,9-tetrahydro-5H-pyrimido[4,5-d]azepine] | 96 |  |  |  |

Now from value to compound, other results behind:

| Ki [1] [nM] | Ki [2] [nM] | Ki [4] [nM] | Compound | Ki [3] [nM] |
| --- | --- | --- | --- | --- |
| 6 | 4 | 8 | Cc1ccc(-c2nc(N3CCOC[C@H]3C)nc3c2CCNCC3)cc1 [Example 100, 6,7,8,9-tetrahydro-2-[(3R)-3-methyl-4-morpholinyl]-4-(4-methylphenyl)-5H-pyrimido[4,5-d]azepine] | 21 |
| 31 | 15 | 2 | Cc1ccc(-c2nc(N3[C@H](C)CCC[C@@H]3C)nc3c2CCNCC3)cc1F [Example 85, 2-[(2R,6S)-2,6-dimethyl-1-piperidinyl]-4-(3-fluoro-4-methylphenyl)-6,7,8,9-tetrahydro-5H-pyrimido[4,5-d]azepine] | 45 |
| 83 |  |  | COc1ccc(-c2nc(N3CCC(F)CC3)nc3c2CCNCC3)cc1 [Example 81, 2-(4-fluoro-1-piperidinyl)-6,7,8,9-tetrahydro-4-(4-methoxyphenyl)-5H-pyrimido[4,5-d]azepine] |  |
| 46 | 1 | 3 | Clc1ccc(-c2nc(N3CCCCC3)nc3c2CCNCC3)cc1 [Example 74, 4-(4-chlorophenyl)-6,7,8,9-tetrahydro-2-(1-piperidinyl)-5H-pyrimido[4,5-d]azepine] | 4 |
| 92 | 3780 | 650 | CC(C)c1ccc(-c2nc(N3CCS(=O)(=O)CC3)nc3c2CCNCC3)cc1 [Example 101, 2-(1,1-Dioxo-1λ^6-thiomorpholin-4-yl)-4-(4-isopropyl-phenyl)-6,7,8,9-tetrahydro-5H-pyrimido[4,5-d]azepine] |  |
| 47 | 46 | 8 | COc1ccc(-c2nc(N3CCCC3C)nc3c2CCNCC3)cc1Cl (centres unmarked) [Example 66, 4-(3-chloro-4-methoxyphenyl)-6,7,8,9-tetrahydro-2-(2-methyl-1-pyrrolidinyl)-5H-pyrimido[4,5-d]azepine] | 61 |
| 85.9 |  |  | Cc1ccc(-c2nc(N3CCCCC3)nc3c2CCNCC3)cc1Cl [Example 75, 4-(3-chloro-4-methylphenyl)-6,7,8,9-tetrahydro-2-(1-piperidinyl)-5H-pyrimido[4,5-d]azepine] |  |
| 82 |  |  | C[C@@H]1CCC[C@H](C)N1c1nc2c(c(-c3ccc4c(c3)OCCO4)n1)CCNCC2 [Example 87, 4-(2,3-dihydro-1,4-benzodioxin-6-yl)-2-[(2R,6S)-2,6-dimethyl-1-piperidinyl]-6,7,8,9-tetrahydro-5H-pyrimido[4,5-d]azepine] |  |
| 70 | 360 | 300 | c1ccc2ncc(-c3nc(N4CCOCC4)nc4c3CCNCC4)cc2c1 [Example 102, 2-Morpholin-4-yl-4-quinolin-3-yl-6,7,8,9-tetrahydro-5H-pyrimido[4,5-d]azepine] |  |
| 41 | 960 | 280 | Cc1ccc(-c2nc(N3CCS(=O)(=O)CC3)nc3c2CCN(C)CC3)cc1 [Example 65, 2-(1,1-Dioxo-1λ^6-thiomorpholin-4-yl)-7-methyl-4-p-tolyl-6,7,8,9-tetrahydro-5H-pyrimido[4,5-d]azepine] |  |
